Where two headings read alike, the source gives them in different places.
Columns and labels:
[1] = target: T1, C. difficile Glutamate 2,3-aminomutase (Clostridioides difficile, UniProt Q185C5, V264I); format: biochemical, Clostridium difficile; details: for rate of reaction to the other isomer: 20 mM substrate; for Specific Activity: substrate 20 mM
T1 construct: made in house; host or cells: E. coli BL21(DE3) CodonPlus RILP, pET23a(+)
Description: Glutamate 2,3-aminomutase Activity Measurements. Enzyme assays were conducted in an anaerobic chamber (Coy, Grass Lake, Mich.) at 37° C. […] At various time intervals (0-3 min), 45 μl of reaction mix was added to 15 μl of 2N perchloric acid to stop the reaction. Samples were centrifuged at 14,000×g for 10 min. The supernatant fluids were treated with PITC according to the method of Heinrikson and Meredith (20). Samples were dissolved in 100 μl of coupling buffer, concentrated to dryness by vacuum centrifugation, redissolved in 400 μl coupling buffer plus 20 μl of PITC, allowed to react for 30 min at room temperature, concentrated to dryness as above, and dissolved in either 0.5 or 1.0 ml water prior to injection (50 or 100 μl). The PITC derivative of L-glutamate was separated from the β-glutamate derivative by HPLC chromatography (20) using a C18 reverse phase column (Phenomenex Gemini 5μ, 4.6 mm×25 cm, #G-4435-E0), flow rate 1 ml/min, room temperature. The PITC-amino acids were separated with a linear gradient composed of 0.05 M ammonium acetate in water (buffer A) and 0.1 M ammonium acetate in 44% water, 46% acetonitrile, and 10% methanol (buffer B). The gradient established was 0-10% Buffer B in 20 min, 10-100% Buffer B in 10 min. […] Concentrations of L-glutamate or β-glutamate were measured using an amino acid standard solution (Pierce Chemical Co., #20088). For enzyme activity measurements at selected time points, the peak area of either L-glutamate or β-glutamate was divided by the total peak area (L-glutamate+β-glutamate) and multiplied by the starting concentration of either L-glutamate or β-glutamate to obtain molar concentrations. Enzyme kinetic parameters were determined by varying the concentration of L-glutamate (0.6-20 mM). Two separate analyses were conducted at two concentrations of enzyme (0.75 and 0.15 μM—subunit) with remaining conditions as stated above. Initial velocities were measured and used to calculate kinetic parameters (Vmax and Km) by the nonlinear least squares curve fitting method of Cleland (25).

[2] = target: T1, C. difficile Glutamate 2,3-aminomutase; format: biochemical, Clostridium difficile; details: for Keq: 24° C.
Description: Measurement of the Equilibrium Constant for Conversion of L-Glutamate into β-Glutamate Catalyzed by Glutamate 2,3-aminomutase. Assays were conducted as previously described (see activity measurements above) except at 24° C. […] Initial enzyme concentrations were either 0.75 μM or 0.15 μM. After approximately 4 hours at 24° C., an additional aliquot of enzyme was added to make the final enzyme concentration either 1.5 μM or 0.3 μM, and the reaction was allowed to proceed for an additional 16 hours at 24° C. The reaction was stopped with 0.55 N perchloric acid, and the amino acids were derivatized with PITC as previously described. Following HPLC separation of the PITC derivatized L-glutamate and β-glutamate, the simple ratio of the peak areas of the two compounds was calculated based on the equivalent extinction coefficient of the two compounds (20).

N[C@@H](CCC(=O)O)C(=O)O [L-Glutamate, L-glutamate] was tested, and the “rate of reaction to the other isomer” value [1] was 5.9 μmoles min^−1· (mg protein)^−1, the maximum velocity ([1]; 37° C., forward direction) was 7 μmoles of β-glutamate min^−1· (mg protein)^−1 and the Vmax ([1]; Assay 1, 37° C.) was 7.5 ± 0.18 μmoles · β-Glutamate min^−1 (mg protein)^−1. For the same compound, the kcat ([1]; Assay 1, 37° C.) was 6.2 s⁻¹, the Km ([1]; Assay 1, 37° C., read-out: Km (L-Glutamate)) was 2200 ± 160 µM and the Vmax ([1]; Assay 2, 37° C.) was 7.3 ± 0.19 μmoles · β-Glutamate min^−1 (mg protein)^−1. For the same compound, the kcat ([1]; Assay 2, 37° C.) was 6.0 s⁻¹, the Km ([1]; Assay 2, 37° C., read-out: Km (L-Glutamate)) was 2300 ± 180 µM and the kcat ([1]; conditions of Table 3) was 6 s⁻¹. The Km ([1]; forward direction, conditions of Table 3, read-out: Michaelis constant (Km)) was 2000 µM, the “Specific Activity” value ([1]; SAM +, Dithionite +, 37° C.) was 5.9 μmoles · min^−1 · mg^−1 Protein and the “Specific Activity” value ([1]; SAM +, Dithionite −, 37° C.) was 0.16 μmoles · min^−1 · mg^−1 Protein. The “Specific Activity” value ([1]; SAM −, Dithionite +, 37° C.) was <0.01 μmoles · min^−1 · mg^−1 Protein, the Keq ([2]; [L-Glutamate] start 0.6 mM, [Enzyme] 1.5 μM (subunit)) was 14.2 and the Keq ([2]; [L-Glutamate] start 0.8 mM, [Enzyme] 0.30 μM (subunit)) was 14.8. It also gave a Keq ([2]; [L-Glutamate] start 1.4 mM, [Enzyme] 1.5 μM (subunit)) of 15.2, a Keq ([2]; [L-Glutamate] start 1.6 mM, [Enzyme] 0.30 μM (subunit)) of 15.7 and a Keq ([2]; [L-Glutamate] start 3.1 mM, [Enzyme] 1.5 μM (subunit)) of 16.0. It also gave a Keq ([2]; [L-Glutamate] start 3.2 mM, [Enzyme] 0.30 μM (subunit)) of 15.9, a Keq ([2]; [L-Glutamate] start 6.4 mM, [Enzyme] 0.30 μM (subunit)) of 15.9 and a Keq ([2]; [L-Glutamate] start 6.6 mM, [Enzyme] 1.5 μM (subunit)) of 15.6. The Keq ([2]; [L-Glutamate] start 12.4 mM, [Enzyme] 1.5 μM (subunit)) was 15.6, the Keq ([2]; [L-Glutamate] start 12.9 mM, [Enzyme] 0.30 μM (subunit)) was 16.3 and the Keq ([2]; [L-Glutamate] start 22.1 mM, [Enzyme] 0.30 μM (subunit)) was 15.5. The Keq ([2]; [L-Glutamate] start 22.9 mM, [Enzyme] 1.5 μM (subunit)) was 15.3.

In the case of NCCCC[C@H](N)C(=O)O [L-lysine, reference compound], the “conversion to β-lysine by glutamate 2,3-aminomutase” value ([1]; substrate specificity) is reported as “does not catalyze”.

For O=S([O-])S(=O)[O-].[Na+].[Na+] [dithionite, sodium dithionite, reference compound], the “effect of excess on enzyme activity” value ([1]; excess, progressive loss of activity over time at >70 μM (FIG. 3)) was “inhibitory”.

With NC(CC(=O)O)CC(=O)O [β-Glutamate, β-glutamate] the “rate of reaction to the other isomer” value [1] was 2.3 μmoles min^−1· (mg protein)^−1, the “Specific Activity” value ([1]; SAM +, Dithionite +, 37° C.) was 2.3 μmoles · min^−1 · mg^−1 Protein and the Keq ([2]; [β-Glutamate] start 0.6 mM, [Enzyme] 0.30 μM (subunit)) was 15.6. For the same compound, the Keq ([2]; [β-Glutamate] start 0.6 mM, [Enzyme] 1.5 μM (subunit)) was 15.3, the Keq ([2]; [β-Glutamate] start 1.4 mM, [Enzyme] 0.30 μM (subunit)) was 15.6 and the Keq ([2]; [β-Glutamate] start 1.4 mM, [Enzyme] 1.5 μM (subunit)) was 15.8. It also gave a Keq ([2]; [β-Glutamate] start 3.1 mM, [Enzyme] 0.30 μM (subunit)) of 16.2, a Keq ([2]; [β-Glutamate] start 3.1 mM, [Enzyme] 1.5 μM (subunit)) of 16.3 and a Keq ([2]; [β-Glutamate] start 6.2 mM, [Enzyme] 0.30 μM (subunit)) of 15.7. For the same compound, the Keq ([2]; [β-Glutamate] start 6.2 mM, [Enzyme] 1.5 μM (subunit)) was 16.4, the Keq ([2]; [β-Glutamate] start 12.3 mM, [Enzyme] 0.30 μM (subunit)) was 16.6 and the Keq ([2]; [β-Glutamate] start 12.3 mM, [Enzyme] 1.5 μM (subunit)) was 16.4. For the same compound, the Keq ([2]; [β-Glutamate] start 22.9 mM, [Enzyme] 1.5 μM (subunit)) was 15.9, the Keq ([2]; [β-Glutamate] start 24.3 mM, [Enzyme] 0.30 μM (subunit)) was 16.1 and the “equilibrium ratio of β-Glu to L-glutamate” value ([2]; same end point from either substrate) was “approximately 16”.

— patent US7456271B2, “Glutamate 2,3-aminomutases and methods of use thereof” (Wisconsin Alumni Research Foundation, priority 2005, dated 2008)
